Where two headings read alike, the source gives them in different places. Residues, ends and D or L forms follow the SMILES beside them. No end group written: not given here.
How the values were obtained:
HLA-DR 1, 2, 3, 4 and 7 = test: HLA-DR-peptide binding assay, summary over the molecules tested; design: species or system human; details: E7 peptides tested on HLA-DR 1, 2, 3, 4 and 7
Method: The analysis of peptide binding to purified DR molecules was performed using N-terminally fluorescence-labelled standard peptides.

HLA-DR2 (DRB1*0201) = test: HLA-DR-peptide binding assay; design: species or system human
HLA-DR1 (DRB*0101) = biological target: T1, HLA-DR1 (DRB*0101) (Homo sapiens, UniProt P01903+P01911, A100R/D57E/F55L/F60I/F76Y/I96L/L162R/M171V/P40L/Q125E/R42F/V115G/Y59C); test: biochemical; type: binding
T1 construct: endogenous in cells; host or cells: LG2.1 B-lymphoblastic cell line, homozygous for HLA-DR

HLA-DR7 (DRB1*0701) = HLA-DR7 (DRB1*0701) (Homo sapiens, UniProt P01903+P01911, A100R/A102G/A103Q/D57E/D86V/E43K/F76Y/K127E/L162R/M171V/P40G/Q125H/Q99D/R33Q/R42Y/R54Q/S133A/S66F/T210M/V115G/Y107V/Y59L/Y89S); details: read-out: Binding DR7, IC50
HLA-DR4 (DRB*0401) = test: HLA-DR-peptide binding assay; design: species or system human
HLA-DR3 (DRB*0301) = test: HLA-DR-peptide binding assay; design: species or system human
[1] = test system: HPV16 E2-specific Th-clones; test: HPV16 E2-specific Th-clones: peptide recognition; type: cell-based, human; details: clones from long-term E2 peptide stimulated healthy donor PBMC
Method: Long-term HPV16 E2-specific T-cell cultures and Th-clones were established according to previously described procedures (van der Burg et al. 1999). Briefly, PBMC from healthy HLA-typed donors were stimulated in vitro with the following HPV16 E2 peptides (E2271-300+E2286-315, E2301-330+E2316-345, E2331-365). 15×10^6 PBMC were seeded in 25 cm^2 culture flasks (Nalge Nunc, USA) in 6 ml IMDM supplemented with 10% autologous serum. Peptides were added at a concentration of 5 μg/ml. At day 7.15×10^6 PBMC were added, together with fresh medium and peptides. At day 14 and 21 viable T cells were harvested from the cultures, counted and restimulated with an equal amount of autologous irradiated PBMC and peptide (5 μg/ml). T-cell growth factor (Biotest, Dreieich, Germany) was added 2 days after restimulation at a final concentration of 10%. The T-cell cultures were tested for peptide recognition by proliferation assay at day 28. Peptide-specific T-cell cultures were cloned by limiting dilution and T-cell clones were subsequently tested for the recognition of E2-peptide and -protein-pulsed APC.
Specificity of the Th clones was analysed as described previously (Van der Burg et al. 1999). […] For measurement of proliferation, cultures were pulsed with […] [^3H] thymidine (5 μCi/mM, Amersham, UK) per well for 18 hours. Plates were harvested with a Micro cell Harvester (Skatron, Norway). Filters were packed in plastic covers containing 10 ml of scintillation fluid and subsequently counted on a 1205 Betaplate counter (Wallac, Turku, Finland). HLA-class II blocking experiments were performed using murine monoclonal antibodies: anti-DQ SPV. L3, anti-DR B8. 11.2, and anti-DP B7/21. Supernatants of the proliferation assays were harvested 24 hrs after incubation and analysed for the presence of IFN-γ by ELISA (van der Burg et al., 1999).

[2] = HPV16-E7 22-mer peptides, >70 indicates undetectable binding, read-out: Binding DR2, IC50
[3] = HPV16-E7 22-mer peptides, >70 indicates undetectable binding, read-out: Binding DR4, IC50
[4] = HPV16-E7 22-mer peptides, >70 indicates undetectable binding, read-out: Binding DR3, IC50

Row | Compound | IC50 (HLA-DR2 (DRB1*0201); [2]) | IC50 (HLA-DR1 (DRB*0101); read-out: Binding DR1, IC50) | IC50 (HLA-DR7 (DRB1*0701)) | IC50 (HLA-DR4 (DRB*0401); [3]) | IC50 (HLA-DR3 (DRB*0301); [4]) | recognition by E2-specific CD4+ Th clones and HLA restriction [1] | further results
1 | CSCC[C@H](NC(=O)[C@H](Cc1ccc(O)cc1)NC(=O)[C@H](CCC(=O)O)NC(=O)[C@H](Cc1c[nH]cn1)NC(=O)[C@H](CC(C)C)NC(=O)[C@@H](NC(=O)[C@@H]1CCCN1C(=O)[C@@H](NC(=O)[C@H](CC(=O)O)NC(=O)CNC(=O)[C@H](Cc1c[nH]cn1)NC(=O)[C@@H](N)CCSC)[C@@H](C)O)[C@@H](C)O)C(=O)N[C@@H](CC(C)C)C(=O)N[C@@H](CC(=O)O)C(=O)N[C@@H](CC(C)C)C(=O)N[C@@H](CCC(N)=O)C(=O)N1CCC[C@H]1C(=O)N[C@@H](CCC(=O)O)C(=O)N[C@H](C(=O)N[C@H](C(=O)N[C@@H](CC(=O)O)C(=O)N[C@@H](CC(C)C)C(=O)O)[C@@H](C)O)[C@@H](C)O [E7 1-22] | 10 µM | > 70 µM | 7 µM | 30 µM | 0.8 µM | – | HLA-DR molecules bound (HLA-DR 1, 2, 3, 4 and 7): bound to HLA DR2, 3, 4 and 7
2 | CSCC[C@H](NC(=O)[C@@H](N)Cc1ccc(O)cc1)C(=O)N[C@@H](CC(C)C)C(=O)N[C@@H](CC(=O)O)C(=O)N[C@@H](CC(C)C)C(=O)N[C@@H](CCC(N)=O)C(=O)N1CCC[C@H]1C(=O)N[C@@H](CCC(=O)O)C(=O)N[C@H](C(=O)N[C@H](C(=O)N[C@@H](CC(=O)O)C(=O)N[C@@H](CC(C)C)C(=O)N[C@@H](Cc1ccc(O)cc1)C(=O)N[C@@H](CS)C(=O)N[C@@H](Cc1ccc(O)cc1)C(=O)N[C@@H](CCC(=O)O)C(=O)N[C@@H](CCC(N)=O)C(=O)N[C@@H](CC(C)C)C(=O)N[C@@H](CC(N)=O)C(=O)N[C@@H](CC(=O)O)C(=O)N[C@@H](CO)C(=O)N[C@@H](CO)C(=O)O)[C@@H](C)O)[C@@H](C)O [E7 11-32] | > 70 µM | > 70 µM | > 70 µM | > 70 µM | 50 µM | – | –
3 | CC[C@H](C)[C@H](NC(=O)[C@H](CC(N)=O)NC(=O)[C@H](Cc1ccc(O)cc1)NC(=O)[C@@H](N)Cc1c[nH]cn1)C(=O)N[C@H](C(=O)N[C@H](C(=O)N[C@@H](Cc1ccccc1)C(=O)N[C@@H](CS)C(=O)N[C@@H](CS)C(=O)N[C@@H](CCCCN)C(=O)N[C@@H](CS)C(=O)N[C@@H](CC(=O)O)C(=O)N[C@@H](CO)C(=O)N[C@H](C(=O)N[C@@H](CC(C)C)C(=O)N[C@@H](CCCNC(=N)N)C(=O)N[C@@H](CC(C)C)C(=O)N[C@@H](CS)C(=O)N[C@H](C(=O)N[C@@H](CCC(N)=O)C(=O)N[C@@H](CO)C(=O)N[C@H](C(=O)O)[C@@H](C)O)C(C)C)[C@@H](C)O)[C@@H](C)O)C(C)C [E7 51-72] (H-HYNIVTFCCKCDSTLRLCVQST-OH; N-terminus and C-terminus assumed) | > 70 µM | – | – | > 70 µM | 50 µM | – | HLA-DR molecules bound (HLA-DR 1, 2, 3, 4 and 7): bound to DR1, 3 and 7
4 | CC[C@H](C)[C@H](NC(=O)[C@H](CC(=O)O)NC(=O)[C@@H](NC(=O)[C@H](Cc1c[nH]cn1)NC(=O)[C@@H](NC(=O)[C@H](CO)NC(=O)[C@H](CCC(N)=O)NC(=O)[C@@H](NC(=O)[C@H](CS)NC(=O)[C@H](CC(C)C)NC(=O)[C@H](CCCNC(=N)N)NC(=O)[C@H](CC(C)C)NC(=O)[C@@H](NC(=O)[C@H](CO)NC(=O)[C@H](CC(=O)O)NC(=O)[C@@H](N)CS)[C@@H](C)O)C(C)C)[C@@H](C)O)C(C)C)C(=O)N[C@@H](CCCNC(=N)N)C(=O)N[C@H](C(=O)N[C@@H](CC(C)C)C(=O)N[C@@H](CCC(=O)O)C(=O)N[C@@H](CC(=O)O)C(=O)N[C@@H](CC(C)C)C(=O)O)[C@@H](C)O [E7 61-82] (H-CDSTLRLCVQSTHVDIRTLEDL-OH; N-terminus and C-terminus assumed) | 15 µM | > 70 µM | > 70 µM | > 70 µM | 65 µM | – | –
5 | CC[C@H](C)[C@H](NC(=O)CNC(=O)[C@H](CC(C)C)NC(=O)[C@@H](NC(=O)CNC(=O)[C@H](CCSC)NC(=O)[C@H](CC(C)C)NC(=O)[C@H](CC(C)C)NC(=O)[C@H](CC(=O)O)NC(=O)[C@H](CCC(=O)O)NC(=O)[C@H](CC(C)C)NC(=O)[C@@H](NC(=O)[C@@H](N)CCCNC(=N)N)[C@@H](C)O)[C@@H](C)O)C(=O)N[C@H](C(=O)N[C@@H](CS)C(=O)N1CCC[C@H]1C(=O)N[C@H](C(=O)N[C@@H](CS)C(=O)N[C@@H](CO)C(=O)N[C@@H](CCC(N)=O)C(=O)N[C@@H](CCCCN)C(=O)N1CCC[C@H]1C(=O)O)[C@@H](C)CC)C(C)C [E7 77-98] (H-RTLEDLLMGTLGIVCPICSQKP-OH; N-terminus and C-terminus assumed) | 22 µM | – | – | > 70 µM | > 70 µM | – | HLA-DR molecules bound (HLA-DR 1, 2, 3, 4 and 7): bound to DR1, 2 and DR7; IC50 (HLA-DR1 (DRB*0101); read-out: Binding DR1, IC50, HPV16-E7 22-mer peptides, >70 indicates undetectable binding): 46 µM; IC50 (HLA-DR7 (DRB1*0701); HPV16-E7 22-mer peptides, >70 indicates undetectable binding): 0.9 µM
6 | DLYCYEQLNDSSEEEDEIDGPA [E7 21-42] | 12 µM | > 70 µM | > 70 µM | > 70 µM | > 70 µM | – | –
7 | E2 51-70: Th epitope peptide, amino acids 51-70 of HPV16 E2 (FKHINHQVVPTLAVSKNKAL) | – | – | – | – | – | in a HLA-DR4 restricted manner | –
8 | E2 61-75: Th epitope peptide, amino acids 61-75 of HPV16 E2 (TLAVSKNKALQAIEL; UniProt P03120 61-75, looked up, fragment) | – | – | – | – | – | reacted against | –
9 | E2 311-325: Th epitope peptide, amino acids 311-325 of HPV16 E2 (LYTAVSSTWHWTGHN) | – | – | – | – | – | in the context of HLA-DQ6 (1) | –
10 | E2 351-365: Th epitope peptide, amino acids 351-365 of HPV16 E2 (KIPKTITVSTGFMSI) | – | – | – | – | – | in a DR1-restricted manner | –
11 | LRYRFKKHCTLYTAVSSTWHWTGHNVKHKS [E2 301-330] | – | – | – | – | – | both Th-clones recognized | IC50 (HLA-DR2 (DRB1*0201); HPV16-E2 peptides, >70 represents undetectable binding, read-out: Binding affinity DR2, IC50): 8 µM; IC50 (HLA-DR1 (DRB*0101); HPV16-E2 peptides, >70 represents undetectable binding, read-out: Binding affinity DR1, IC50): 6 µM; IC50 (HLA-DR4 (DRB*0401); HPV16-E2 peptides, >70 represents undetectable binding, read-out: Binding affinity DR4, IC50): 10 µM; IC50 (HLA-DR3 (DRB*0301); HPV16-E2 peptides, >70 represents undetectable binding, read-out: Binding affinity DR3, IC50): > 70 µM
